The record followed here is patent US20250127913A1, “BIFUNCTIONAL FOLATE RECEPTOR BINDING COMPOUNDS” (LYCIA THERAPEUTICS, INC., priority 2021, published 2025).

One experiment has as its target TNFα (Homo sapiens (Human), UniProt P01375). Briefly: TNFα binding assay (time-resolved FRET, biotinylated TNFα). The note with it: 1 nM biotinylated TNFα, 80 nM probe, 16 hr incubation; read-out: TNF-HTRF-biotin. On the procedure:
TNFα binding was measured in black 96-well plates using a time-resolved FRET assay using a previously described fluorescence acceptor TNFα probe (Xiao et al J. Med. Chem. 2020). Biotinylated TNFα was purchased from Acro Biosystems. Binding reactions were conducted in 20 mM Hepes (pH 7.5) 10 mM MgCl2 0.015% Tween-20 0.05 mg/ml BSA 2% DMSO with 1 nM TNFα 0.5 nM Streptavidin-Tb and 80 nM probe. Test compounds were resuspended in DMSO and 3-fold serial dilutions were made at 100× final concentrations. Fluorescence was measured using λex=340 nm, λem=490, 520 nm on an SpectraMax M5e plate reader (Molecular Devices) after 16 hr incubation time. Dose responses were conducted in duplicate and normalized to the response with DMSO (high) and 100 nM (R)-3-(1-((3-chloro-7-fluoro-6-(2-(2-hydroxypropan-2-yl)pyrimidin-5-yl)-2-methyl-1,5-naphthyridin-4-yl)amino)ethyl)-4-fluorobenzonitrile (low) on each plate. IC50 values were determined by fitting to 4-parameter curves in GraphPad Prism.
(In TR-FRET formats the signal depends on donor and acceptor labels being close together.)

The target of experiment [1] is TNFα and streptavidin immobilized FOL2R (Homo sapiens (Human), UniProt P01375+P14207). Briefly: Ternary complex SPR assay. In kind it is binding. The note with it: 10 nM compound, max response normalized to expected response; for TC 60 nM taggless TNF normalized: 60 nM untagged TNF; for TC 300 nM- tagless TNF Normalized: 300 nM untagged TNF; for TC 150 nM- tagless TNF Normalized: 150 nM untagged TNF. How it is done:
Folate receptor-TNFα ternary complex SPR assays were conducted on a Biacore 8K instrument (Cytiva) using biotinylated folate receptor beta (Acro Biosystems). Folate receptor was immobilized at -1800 RU on a streptavidin chip (Cytiva) in 10 mM HEPES pH 7.5, 150 mM NaCl, 0.05% Tween 20. Untagged TNF was preincubated with 10 nM compound for 6 hr in 10 mM HEPES pH 7.5, 150 mM NaCl, 0.05 Tween 20, 2% DMSO at 25° C. Samples were then injected over the folate receptor surface at 30 μl/min with an association time of 110 s and a dissociation time of 600 s. Surfaces were regenerated with 4 M MgCl2 at 30 μl/mm for 30 s. The maximum measured response was normalized by comparison to the maximum expected response for each compound.
For orientation: Surface plasmon resonance follows binding to a sensor surface in real time, without labels.

Experiment [2] concerns the target T1, folate receptor beta (Homo sapiens (Human), UniProt P14207). Briefly: Folate receptor binding assay (fluorescence polarization). The following applies: 2.5 nM folate receptor beta, 2 nM FR-Cy probe, 2 hr incubation; read-out: FOLR2-FP. On the procedure:
Folate receptor binding was measured in black 96-well plates using a fluorescence polarization assay. A fluorescent probe consisting of a folate analog linked to Cy5 (FR-Cy) was custom synthesized.
Test compounds were resuspended in DMSO and 3-fold serial dilutions were made from 300-0.015 μM (100× final concentrations). Binding reactions were conducted in 200 μl final volume in 20 mM Hepes (pH 7.5) 250 mM NaCl 0.0150 Tween-20 1% DMSO with 2.5 nM folate receptor beta (Acro Biosystems) and 2 nM probe. Fluorescence polarization was measured using λex=620 nm, λem=688 nm on an Envision plate reader (Perkin Elmer) after 2 hr incubation time. Dose responses were conducted in duplicate and normalized to the response with DMSO (high) and 1 μM folic acid (low) on each plate. IC50 values were determined by fitting to 4-parameter curves in GraphPad Prism.
A general note: Polarisation of emitted light reports the rotation of a fluorescent probe.

Experiment [3] concerns the target T1, folate receptor beta. Nature of the experiment: Folate receptor SPR assay (biotinylated folate receptor beta on streptavidin chip). The note with it: for Rmax: biotinylated folate receptor beta on streptavidin chip; for kd / Kd / kon: multi-cycle kinetics, 25° C., 1:1 model; for Kd: read-out: FOLR2Biotin - SPR Kd; for kon: pH 7.5, read-out: ka. In kind it is binding. On the procedure: Folate receptor SPR binding assays were conducted on a Biacore 8K instrument (Cytiva) using biotinylated folate receptor beta (Acro Biosystems). Briefly, folate receptor was immobilized at -550 RU on a streptavidin chip (Cytiva) in 10 mM HEPES pH 7.5, 150 mM NaCl, 0.05% Tween 20. Multi-cycle kinetic studies were conducted with 8 compound concentrations using 2-fold dilutions in 10 mM HEPES pH 7.5, 150 mM NaCl, 0.05% Tween 20, 2% DMSO at 25° C. A flow rate or 75 μl/mmn with an association time of 120 s and a dissociation time of 600 s were used. Surfaces were regenerated with 4 M MgCl2 at 30 μl/min for 30 s. Data were fit to a 1:1 model to determine the reported binding parameters.

SMILES strings stand for the structures.

T1 sequence (P14207 17-255): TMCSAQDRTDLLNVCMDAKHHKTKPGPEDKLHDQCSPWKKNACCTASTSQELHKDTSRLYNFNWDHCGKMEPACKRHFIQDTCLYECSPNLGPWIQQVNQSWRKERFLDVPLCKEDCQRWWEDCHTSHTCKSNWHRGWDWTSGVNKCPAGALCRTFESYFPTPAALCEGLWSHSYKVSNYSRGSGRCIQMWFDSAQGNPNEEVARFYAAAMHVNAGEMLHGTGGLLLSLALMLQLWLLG
Sequence of TNFα and streptavidin immobilized FOL2R (P14207 17-230): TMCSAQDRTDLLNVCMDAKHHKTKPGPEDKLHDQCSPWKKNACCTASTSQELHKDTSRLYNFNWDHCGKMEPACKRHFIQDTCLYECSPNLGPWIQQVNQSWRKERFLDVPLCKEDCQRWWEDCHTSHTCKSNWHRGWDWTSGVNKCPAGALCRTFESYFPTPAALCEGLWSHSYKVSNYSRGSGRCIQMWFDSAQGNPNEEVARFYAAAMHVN
Sequence of TNFα and streptavidin immobilized FOL2R (P01375 77-233): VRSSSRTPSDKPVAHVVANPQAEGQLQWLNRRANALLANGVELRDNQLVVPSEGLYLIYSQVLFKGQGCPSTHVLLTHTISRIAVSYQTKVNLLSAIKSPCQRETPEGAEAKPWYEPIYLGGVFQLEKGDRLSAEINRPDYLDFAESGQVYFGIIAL
Sequence of TNFα (P01375 77-233): as above

The term Kd denotes a measure of binding affinity in units of concentration. As to `Cc1nc2cc(F)c(-c3cnc(N4CCN(C(=O)COCCOCCOCCOCCOCCOCCn5cc(CC[C@H](NC(=O)c6ccc(CCc7ccc8nc(N)nc(O)c8c7)cc6)C(=O)O)nn5)CC4)nc3)nc2c(N[C@H](C)c2cc(C#N)ccc2F)c1Cl` [Compound I-82, (S)-2-(4-(2-(2-amino-4-hydroxyquinazolin-6-yl)ethyl)benzamido)-4-(1-(20-(4-(5-(7-chloro-8-(((R)-1-(5-cyano-2-fluorophenyl)ethyl)amino)-3-fluoro-6-methyl-1,5-naphthyridin-2-yl)pyrimidin-2-yl)piperazin-1-yl)-20-oxo-3,6,9,12,15,18-hexaoxaicosyl)-1H-1,2,3-triazol-4-yl)butanoic acid], the IC50 at TNFα came to 19 nM. In experiment [1], the “TC 60 nM taggless TNF normalized” value was 15.7% and the “TC 300 nM- tagless TNF Normalized” value is reported as 24.9%. In addition, the IC50 on folate receptor beta [2] came out at 4.9 nM. On folate receptor beta [3], the Rmax came out at 14.5 RU, the kd is 0.000591 s⁻¹, the equilibrium dissociation constant (Kd) was determined as 0.031 nM and the kon worked out at 1.91e+07 M⁻¹ s⁻¹.
Turning to `Cc1nc2cc(F)c(-c3cnc(N4CCN(C(=O)COCCOCCN5CCC6(CC5)CCN(C(=O)CC[C@H](NC(=O)c5ccc(NCc7cnc8nc(N)nc(O)c8n7)cc5)C(=O)O)CC6)CC4)nc3)nc2c(N[C@H](C)c2cc(C#N)ccc2F)c1Cl` [Compound I-84, (S)-2-(4-(((2-amino-4-hydroxypteridin-6-yl)methyl)amino)benzamido)-5-(9-(2-(2-(2-(4-(5-(7-chloro-8-(((R)-1-(5-cyano-2-fluorophenyl)ethyl)amino)-3-fluoro-6-methyl-1,5-naphthyridin-2-yl)pyrimidin-2-yl)piperazin-1-yl)-2-oxoethoxy)ethoxy)ethyl)-3,9-diazaspiro[5.5]undecan-3-yl)-5-oxopentanoic acid], the IC50 at TNFα stood at 9 nM. Moreover, in experiment [1], the “TC 60 nM taggless TNF normalized” value came out at 10.8%, the “TC 150 nM- tagless TNF Normalized” value worked out at 17.4% and the “TC 300 nM- tagless TNF Normalized” value was 17.3%. Also, the IC50 at folate receptor beta [2] came out at 6.9 nM. At folate receptor beta [3], the Rmax is 19.7 RU, the kd is 0.000153 s⁻¹, the Kd came out at 0.0059 nM and the kon stood at 2.59e+07 M⁻¹ s⁻¹.
With `Cc1nc2cc(F)c(-c3cnc(N4CCN(C(=O)COCCn5cc(COCCOCCOCCN6CCN(C(=O)CC[C@H](NC(=O)c7ccc(NCc8cnc9nc(N)nc(O)c9n8)cc7)C(=O)O)CC6)nn5)CC4)nc3)nc2c(N[C@H](C)c2cc(C#N)ccc2F)c1Cl` [Compound I-95, (S)-2-(4-(((2-amino-4-hydroxypteridin-6-yl)methyl)amino)benzamido)-5-(4-(2-(2-(2-((1-(2-(2-(4-(5-(7-chloro-8-(((R)-1-(5-cyano-2-fluorophenyl)ethyl)amino)-3-fluoro-6-methyl-1,5-naphthyridin-2-yl)pyrimidin-2-yl)piperazin-1-yl)-2-oxoethoxy)ethyl)-1H-1,2,3-triazol-4-yl)methoxy)ethoxy)ethoxy)ethyl)piperazin-1-yl)-5-oxopentanoic acid], the IC50 on TNFα was found to be 26 nM. Moreover, in experiment [1], the “TC 150 nM- tagless TNF Normalized” value is 17.3% and the “TC 300 nM- tagless TNF Normalized” value was 18.6%. Also, the IC50 on folate receptor beta [2] was 11 nM. Further, on folate receptor beta [3], the Rmax is reported as 14.8 RU, the kd turned out to be 0.000337 s⁻¹, the Kd stood at 0.0215 nM and the kon was determined as 1.56e+07 M⁻¹ s⁻¹.
Turning to `Cc1nc2cc(F)c(-c3cnc(N4CCN(C(=O)COCCOCCOCCOCCOCCOCCn5cc(CC[C@H](NC(=O)c6ccc(N(C)Cc7ccc8nc(N)[nH]c(=O)c8c7)cc6)C(=O)O)nn5)CC4)nc3)nc2c(N[C@H](C)c2cc(C#N)ccc2F)c1Cl` [Compound I-85, (S)-2-(4-(((2-amino-4-oxo-3,4-dihydroquinazolin-6-yl)methyl)(methyl)amino)benzamido)-4-(1-(20-(4-(5-(7-chloro-8-(((R)-1-(5-cyano-2-fluorophenyl)ethyl)amino)-3-fluoro-6-methyl-1,5-naphthyridin-2-yl)pyrimidin-2-yl)piperazin-1-yl)-20-oxo-3,6,9,12,15,18-hexaoxaicosyl)-1H-1,2,3-triazol-4-yl)butanoic acid], the IC50 at TNFα was determined as 13 nM. In addition, in experiment [1], the “TC 60 nM taggless TNF normalized” value is 9.7% and the “TC 300 nM- tagless TNF Normalized” value is 15.1%. Besides, on folate receptor beta [2], the IC50 came to 12 nM. Besides, on folate receptor beta [3], the Rmax worked out at 11.9 RU, the kd worked out at 0.00112 s⁻¹, the equilibrium dissociation constant (Kd) turned out to be 0.088 nM and the kon is 1.27e+07 M⁻¹ s⁻¹.
For `Cc1nc2cc(F)c(-c3cnc(N4CCN(C(=O)COCCn5cc(COCCOCCOCCOCCNC(=O)CC[C@H](NC(=O)c6ccc(SCCc7cc8c(=O)[nH]c(N)nc8[nH]7)cc6)C(=O)O)nn5)CC4)nc3)nc2c(N[C@H](C)c2cc(C#N)ccc2F)c1Cl` [Compound I-98, (S)-18-(4-((2-(2-amino-4-oxo-4,7-dihydro-3H-pyrrolo[2,3-d]pyrimidin-6-yl)ethyl)thio)benzamido)-1-(1-(2-(2-(4-(5-(7-chloro-8-(((R)-1-(5-cyano-2-fluorophenyl)ethyl)amino)-3-fluoro-6-methyl-1,5-naphthyridin-2-yl)pyrimidin-2-yl)piperazin-1-yl)-2-oxoethoxy)ethyl)-1H-1,2,3-triazol-4-yl)-15-oxo-2,5,8,11-tetraoxa-14-azanonadecan-19-oic acid], the IC50 on TNFα was found to be 19 nM. Further, in experiment [1], the “TC 150 nM- tagless TNF Normalized” value was found to be 16.7% and the “TC 300 nM- tagless TNF Normalized” value is 19.4%. Further, on folate receptor beta [2], the IC50 came out at 133 nM. On folate receptor beta [3], the Rmax is 14.8 RU, the kd came to 0.000774 s⁻¹, the Kd was found to be 0.172 nM and the kon worked out at 4.49e+06 M⁻¹ s⁻¹.
Regarding `Cc1nc2cc(F)c(-c3cnc(N4CCN(C(=O)COCCn5cc(COCCOCCOCCOCCNC(=O)CCCNC(=O)c6ccc(NCc7cnc8nc(N)nc(O)c8n7)cc6)nn5)CC4)nc3)nc2c(N[C@H](C)c2cc(C#N)ccc2F)c1Cl` [Compound I-96, (R)-4-(((2-amino-4-hydroxypteridin-6-yl)methyl)amino)-N-(1-(1-(2-(2-(4-(5-(7-chloro-8-((1-(5-cyano-2-fluorophenyl)ethyl)amino)-3-fluoro-6-methyl-1,5-naphthyridin-2-yl)pyrimidin-2-yl)piperazin-1-yl)-2-oxoethoxy)ethyl)-1H-1,2,3-triazol-4-yl)-15-oxo-2,5,8,11-tetraoxa-14-azaoctadecan-18-yl)benzamide], the IC50 on TNFα amounted to 56 nM. In addition, in experiment [1], the “TC 60 nM taggless TNF normalized” value is listed as 12.3%, the “TC 150 nM- tagless TNF Normalized” value was 17.1% and the “TC 300 nM- tagless TNF Normalized” value worked out at 19.2%. The IC50 on folate receptor beta [2] was 20 nM. For the same molecule, on folate receptor beta [3], the Rmax was 17.1 RU, the kd worked out at 0.00129 s⁻¹, the Kd was 0.101 nM and the kon worked out at 1.27e+07 M⁻¹ s⁻¹.
